Measured values published in publication PMC7998721, “A Comparative Study of the Effects of Platinum (II) Complexes on β-Amyloid Aggregation: Potential Neurodrug Applications” (International Journal of Molecular Sciences, 2021).

Key:
[1] = target: T1, β-amyloid Aβ21–40 (C-terminal fragment of Aβ1–40) (Homo sapiens, UniProt P05067); assay: UV/Vis titration; ESI-MS […] adduct; also ThT aggregation and CD; format: binding
T1 construct: gene APP

[2] = target: T1, β-amyloid Aβ21–40 (C-terminal fragment of Aβ1–40); assay: UV/Vis titration; ESI-MS […] adduct; also ThT aggregation; format: binding

T1 sequence (P05067 692-711): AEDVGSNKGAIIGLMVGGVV

Row | SMILES | EC50 [1] [µM] | EC50 [2] [µM]
1 | [Cl][Pt-2]12[n+]3ccccc3-c3cccc([n+]31)-c1cccc[n+]12 [Pt-terpy, (SP-4-2)-chlorido(2,2′:6′,2′′-terpyridine)platinum(II) chloride] | 68 ± 14 | 
2 | [Cl][Pt-2]1([Cl])[n+]2cccc3ccc4ccc[n+]1c4c32 [Pt-phen, (SP-4-2)-dichlorido(1,10-phenanthroline)platinum(II)] |  | 49 ± 20
